Tests used:
HCT-15 = assay: Antiproliferative activity against human HCT15 cells measured after 72 hrs by EZ-Cytox assay; type: functional, cell-based; conditions: HCT-15, 72 h
T47D = assay: Antiproliferative activity against human T47D cells measured after 72 hrs by EZ-Cytox assay; type: functional, cell-based
DU-145 = assay: Antiproliferative activity against human DU145 cells measured after 72 hrs by EZ-Cytox assay; type: functional, cell-based; conditions: DU-145, 72 h
HeLa = assay: Antiproliferative activity against human HeLa cells measured after 72 hrs by EZ-Cytox assay; type: functional, cell-based
[1] = target: T1, DNA topoisomerase 1 (Homo sapiens) (UniProt P11387); assay: Inhibition of recombinant human topoisomerase 1-mediated relaxation of supercoiled pBR322 DNA at 100 uM measured after 30 mins by ethidium bromide staining based agarose gel electrophoresis relative to control
T1 sequence (whole entry): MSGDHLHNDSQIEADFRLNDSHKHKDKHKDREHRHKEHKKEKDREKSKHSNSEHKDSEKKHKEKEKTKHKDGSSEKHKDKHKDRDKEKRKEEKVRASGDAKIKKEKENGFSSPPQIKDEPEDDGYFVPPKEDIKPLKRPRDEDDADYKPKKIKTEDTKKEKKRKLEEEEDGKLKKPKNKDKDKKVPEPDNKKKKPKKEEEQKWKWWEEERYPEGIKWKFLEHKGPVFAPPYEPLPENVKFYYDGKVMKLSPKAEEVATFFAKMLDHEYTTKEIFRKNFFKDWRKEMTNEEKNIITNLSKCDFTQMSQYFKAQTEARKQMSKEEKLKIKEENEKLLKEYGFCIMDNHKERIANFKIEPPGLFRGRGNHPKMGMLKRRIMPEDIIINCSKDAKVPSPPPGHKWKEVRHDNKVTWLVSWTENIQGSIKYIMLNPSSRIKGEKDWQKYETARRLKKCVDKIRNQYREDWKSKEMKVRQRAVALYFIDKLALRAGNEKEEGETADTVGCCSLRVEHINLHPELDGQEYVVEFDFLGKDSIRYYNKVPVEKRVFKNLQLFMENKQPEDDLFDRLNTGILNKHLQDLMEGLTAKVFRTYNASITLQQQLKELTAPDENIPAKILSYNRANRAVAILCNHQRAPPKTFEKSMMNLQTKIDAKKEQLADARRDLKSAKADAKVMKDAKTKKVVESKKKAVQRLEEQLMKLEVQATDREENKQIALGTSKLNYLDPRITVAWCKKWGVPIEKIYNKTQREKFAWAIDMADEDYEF

[2] = target: DNA topoisomerase 2-alpha (Homo sapiens) (UniProt P11388); assay: Inhibition of recombinant human topoisomerase 2alpha-mediated relaxation of supercoiled pBR322 DNA at 100 uM measured after 30 mins by ethidium bromide staining based agarose gel electrophoresis relative to control
[3] = target: DNA topoisomerase 2-alpha (Homo sapiens) (UniProt P11388); assay: Inhibition of recombinant human topoisomerase 2alpha-mediated relaxation of supercoiled pBR322 DNA at 20 uM measured after 30 mins by ethidium bromide staining based agarose gel electrophoresis relative to control

DNA topoisomerase 2-alpha (Homo sapiens), sequence (P11388 whole entry): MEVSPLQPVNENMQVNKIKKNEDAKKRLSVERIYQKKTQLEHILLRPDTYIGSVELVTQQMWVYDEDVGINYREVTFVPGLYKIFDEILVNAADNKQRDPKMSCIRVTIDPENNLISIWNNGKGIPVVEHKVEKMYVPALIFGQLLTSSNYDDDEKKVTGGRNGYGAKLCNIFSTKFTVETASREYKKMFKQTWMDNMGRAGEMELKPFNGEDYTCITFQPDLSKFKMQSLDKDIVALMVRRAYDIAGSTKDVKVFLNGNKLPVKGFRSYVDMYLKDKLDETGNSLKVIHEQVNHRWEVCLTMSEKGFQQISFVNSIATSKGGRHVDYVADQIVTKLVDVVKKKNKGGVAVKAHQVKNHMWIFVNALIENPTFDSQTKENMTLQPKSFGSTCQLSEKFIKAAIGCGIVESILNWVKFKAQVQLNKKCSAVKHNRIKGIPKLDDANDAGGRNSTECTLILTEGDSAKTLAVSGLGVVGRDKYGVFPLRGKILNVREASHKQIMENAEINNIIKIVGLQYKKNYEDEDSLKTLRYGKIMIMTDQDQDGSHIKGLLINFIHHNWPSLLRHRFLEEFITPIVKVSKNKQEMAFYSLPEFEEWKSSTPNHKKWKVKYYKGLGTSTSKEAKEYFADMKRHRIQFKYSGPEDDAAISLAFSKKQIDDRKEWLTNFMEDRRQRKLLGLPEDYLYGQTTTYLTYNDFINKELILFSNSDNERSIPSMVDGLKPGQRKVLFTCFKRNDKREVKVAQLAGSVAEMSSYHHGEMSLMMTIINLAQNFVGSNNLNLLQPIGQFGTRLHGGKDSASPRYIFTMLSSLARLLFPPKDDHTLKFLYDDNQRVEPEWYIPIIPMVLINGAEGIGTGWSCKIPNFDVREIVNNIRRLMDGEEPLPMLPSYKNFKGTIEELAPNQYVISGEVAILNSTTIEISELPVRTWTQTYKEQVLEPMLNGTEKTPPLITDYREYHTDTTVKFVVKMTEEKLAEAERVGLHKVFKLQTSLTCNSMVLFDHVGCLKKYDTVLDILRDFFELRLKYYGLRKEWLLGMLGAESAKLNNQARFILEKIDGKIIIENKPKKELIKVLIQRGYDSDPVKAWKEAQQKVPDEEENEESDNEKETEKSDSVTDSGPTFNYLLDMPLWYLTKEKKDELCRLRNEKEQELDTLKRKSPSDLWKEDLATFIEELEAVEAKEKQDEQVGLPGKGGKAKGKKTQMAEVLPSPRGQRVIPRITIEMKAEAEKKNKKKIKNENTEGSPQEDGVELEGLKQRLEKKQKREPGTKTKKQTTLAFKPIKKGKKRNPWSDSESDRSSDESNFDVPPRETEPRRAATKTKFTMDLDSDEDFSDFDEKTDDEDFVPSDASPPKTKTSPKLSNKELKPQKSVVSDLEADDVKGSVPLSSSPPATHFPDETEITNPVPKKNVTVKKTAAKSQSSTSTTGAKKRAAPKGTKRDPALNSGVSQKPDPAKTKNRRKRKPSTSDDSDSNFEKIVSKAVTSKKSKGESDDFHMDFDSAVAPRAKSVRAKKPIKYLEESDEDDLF

| inhibition [1] [%] | inhibition [2] [%] | inhibition [3] [%] | SMILES | IC50 (HCT-15) [µM] | IC50 (T47D) [µM] | IC50 (DU-145) [µM] | IC50 (HeLa) [µM] |
| --- | --- | --- | --- | --- | --- | --- | --- |
| 10.2 | 85.2 | 29 | Oc1cccc(-c2cc(-c3cccc(C(F)(F)F)c3)nc3c2Cc2cc(O)ccc2-3)c1 | 2.22 | 1.33 | 1.42 | 2.03 |
| 0.5 | 100 | 24.1 | Oc1cccc(-c2cc(-c3cccc(Cl)c3)nc3c2Cc2c(O)cccc2-3)c1 | 1.13 | 1.52 | 1.49 | 3.31 |
| 1.1 | 67 | 3.9 | Oc1ccc(-c2cc(-c3cccc(F)c3)nc3c2Cc2cccc(O)c2-3)cc1 | > 50 | 0.75 | 5.78 | 7.2 |
| 21.4 | 70.8 | 0 | Oc1ccc2c(c1)Cc1c(-c3ccc(Cl)cc3)cc(-c3ccccc3O)nc1-2 | > 50 | > 50 | > 50 | > 50 |
| 0 | 95 | 11.2 | Oc1cccc(-c2cc(-c3ccc(Cl)cc3)nc3c2Cc2cc(O)ccc2-3)c1 | 0.85 | 1.5 | 1.28 | 1.09 |
| 5.6 | 100 | 32.3 | Oc1cccc(-c2cc(-c3ccccc3Cl)nc3c2Cc2cc(O)ccc2-3)c1 | 0.00133 | 0.78 | 0.81 | 0.91 |
| 0 | 98.9 | 2.8 | Oc1ccc2c(c1)-c1nc(-c3cccc(C(F)(F)F)c3)cc(-c3ccccc3O)c1C2 | 2.95 | 0.51 | 1.63 | 5.25 |
| 3.2 | 71.6 | 13.3 | Oc1ccc(-c2cc(-c3cccc(Cl)c3)c3c(n2)-c2c(O)cccc2C3)cc1 | > 50 | 19 | 6.04 | 43.8 |
| 16.7 | 87.8 | 51.9 | Oc1cccc(-c2cc(-c3ccc(Cl)cc3)nc3c2Cc2ccc(O)cc2-3)c1 | 0.86 | 3.5 | 4.43 | 1.73 |
| 0 | 70.5 | 6.4 | Oc1ccccc1-c1cc(-c2ccc(Cl)cc2)c2c(n1)-c1c(O)cccc1C2 | 18.8 | 13 | 1.95 | > 50 |
| 0 | 99.9 | 11.9 | Oc1ccc2c(c1)Cc1c(-c3ccccc3O)cc(-c3ccc(C(F)(F)F)cc3)nc1-2 | 4.33 | 0.83 | 2.09 | 7.87 |
| 0.3 | 94.2 | 5.3 | Oc1ccccc1-c1cc(-c2cccc(C(F)(F)F)c2)nc2c1Cc1c(O)cccc1-2 | 3.34 | 0.77 | 1.87 | 4.25 |
| 0.4 | 86.1 | 3.4 | Oc1ccc2c(c1)-c1nc(-c3ccccc3C(F)(F)F)cc(-c3ccccc3O)c1C2 | 4.04 | 1.41 | 2.86 | 2.96 |
| 1.3 | 97 | 7.5 | Oc1ccc(-c2cc(-c3ccc(Cl)cc3)c3c(n2)-c2cccc(O)c2C3)cc1 | 9.1 | 12.8 | 1.81 | 18.3 |
| 2.8 | 100 | 14.9 | Oc1cccc(-c2cc(-c3ccc(C(F)(F)F)cc3)nc3c2Cc2cc(O)ccc2-3)c1 | 6.82 | 8.9 | 1.59 | 11.4 |
| 22.9 | 87.9 | 10.8 | Oc1ccc2c(c1)-c1nc(-c3cccc(Cl)c3)cc(-c3ccccc3O)c1C2 | 1.76 | 1.16 | 0.32 | 2.77 |
| 0 | 100 | 0 | Oc1cccc(-c2cc(-c3ccc(C(F)(F)F)cc3)nc3c2Cc2cccc(O)c2-3)c1 | 11.3 | 2.14 | 2.22 | 6.66 |

| inhibition [1] [%] | inhibition [2] [%] | inhibition [3] [%] | SMILES | IC50 (HCT-15) [µM] | IC50 (T47D) [µM] | IC50 (DU-145) [µM] | IC50 (HeLa) [µM] |
| --- | --- | --- | --- | --- | --- | --- | --- |
| 4 | 74.8 | 2 | Oc1ccc(-c2cc(-c3ccccc3Cl)c3c(n2)-c2cc(O)ccc2C3)cc1 | 2.91 | 1.64 | 4.65 | 6.5 |
| 1.8 | 79 | 3.1 | Oc1cccc(-c2cc(-c3ccccc3C(F)(F)F)nc3c2Cc2ccc(O)cc2-3)c1 | 1.67 | 1.22 | 1.83 | 3.71 |
| 11.7 | 70.5 | 8.2 | Oc1ccc2c(c1)Cc1c(-c3ccccc3O)cc(-c3ccccc3Cl)nc1-2 | 2.34 | 2.86 | 1.51 | 0.84 |
| 7.1 | 30.1 | 0.6 | Oc1ccc(-c2cc(-c3ccccc3C(F)(F)F)nc3c2Cc2c(O)cccc2-3)cc1 | 3.82 | 2.66 | 5.34 | > 50 |
| 0 | 85.4 | 4.1 | Oc1ccc2c(c1)Cc1c(-c3ccccc3O)cc(-c3cccc(C(F)(F)F)c3)nc1-2 | 3.89 | 0.7 | 1.72 | 3.1 |
| 8.4 | 71.6 | 1.5 | Oc1ccccc1-c1cc(-c2ccc(Cl)cc2)c2c(n1)-c1cccc(O)c1C2 | > 50 | > 50 | 12.8 | > 50 |
| 17.5 | 66.2 | 0 | Oc1cccc(-c2cc(-c3cccc(F)c3)nc3c2Cc2cc(O)ccc2-3)c1 | 2.71 | 0.79 | 1.41 | 3.85 |
| 3.5 | 83.7 | 1.8 | Oc1ccccc1-c1cc(-c2ccccc2C(F)(F)F)nc2c1Cc1c(O)cccc1-2 | 1.74 | 3.02 | 1.38 | 3.95 |
| 0 | 83.9 | 25.3 | Oc1ccccc1-c1cc(-c2ccc(Cl)cc2)nc2c1Cc1cccc(O)c1-2 | 1.23 | 2.41 | 0.55 | 5.31 |
| 0 | 75.4 | 1.5 | Oc1ccccc1-c1cc(-c2cccc(Cl)c2)c2c(n1)-c1cccc(O)c1C2 | 2.45 | 12 | 6.01 | 20.5 |
| 0 | 74.5 | 0 | Oc1ccc(-c2cc(-c3ccc(Cl)cc3)nc3c2Cc2ccc(O)cc2-3)cc1 | 3.22 | 1.15 | 2.25 | 1.73 |
| 8 | 86.6 | 25.7 | Oc1ccc2c(c1)-c1nc(-c3ccc(Cl)cc3)cc(-c3ccccc3O)c1C2 | 1.78 | 0.72 | 0.49 | 4.61 |
| 6.7 | 59.9 | 0 | Oc1ccc(-c2cc(-c3ccc(Cl)cc3)nc3c2Cc2c(O)cccc2-3)cc1 | 3 | 1.15 | 1.88 | 4.08 |
| 0 | 80.7 | 4.8 | Oc1ccccc1-c1cc(-c2cccc(F)c2)nc2c1Cc1c(O)cccc1-2 | 2.35 | 1.25 | 3.94 | 3.92 |
| 7.6 | 86.6 | 53.6 | Oc1ccc(-c2cc(-c3ccccc3Cl)nc3c2Cc2cc(O)ccc2-3)cc1 | 1.85 | 1.87 | 0.43 | 0.7 |
| 0 | 84.8 | 4 | Oc1ccccc1-c1cc(-c2ccccc2C(F)(F)F)nc2c1Cc1cccc(O)c1-2 | 1.64 | 0.75 | 2 | 1.99 |
